Assay results taken from patent US12517113B2, “Multikinase degraders” (University of Houston System, priority 2019, dated 2026).

Columns and labels:
MEK kinase = test: MEK degradation in A375 melanoma cells, western blotting; format: cell-based, human; details: 12 h, western blot, FIG. 8
Protocol: (§1) Tests were performed to determine the activity of the exemplary PROTACs PEG1-thalidomide, PEG2-thalidomide, PEG3-thalidomide, and PEG4-thalidomide having the structures shown above. Human A375 malignant melanoma cells were obtained from American Type Culture Collection ATCC) and cultured according to ATCC protocols. Subsequently cells were treated with the PROTACs for 18 h at 37° C. and 5% CO2. Subsequently cells were harvested and lysed using commercially available lysis buffer (Biorad) containing Roche cOmplete™ Protease Inhibitor Cocktail tablets. The amount of degraded proteins were probed with specific antibodies purchased from Cell Signaling in western blotting. α-Tubulin was used as the loading control.
(§2) In further tests, the effect of PEG2-Thalidomide degrader […] was tested. Human A375 malignant melanoma cells were treated with PEG2-thalidomide for 12 h at 37° C. and 5% CO2. Proteins MEK and ERK were probed by specific antibodies. The procedure used was similar to the one outlined above.

CHK1 kinase = target: T1, CHK1 kinase (Homo sapiens, UniProt O14757); test: CHK1 degradation in A375 melanoma cells, western blotting; format: cell-based; details: western blot; for degradation of CHK1 kinase: 18 h treatment, 37° C., FIG. 6
T1 construct: endogenous in cells; host or cells: A375 human malignant melanoma cells (ATCC)
T1 sequence (O14757 1-476): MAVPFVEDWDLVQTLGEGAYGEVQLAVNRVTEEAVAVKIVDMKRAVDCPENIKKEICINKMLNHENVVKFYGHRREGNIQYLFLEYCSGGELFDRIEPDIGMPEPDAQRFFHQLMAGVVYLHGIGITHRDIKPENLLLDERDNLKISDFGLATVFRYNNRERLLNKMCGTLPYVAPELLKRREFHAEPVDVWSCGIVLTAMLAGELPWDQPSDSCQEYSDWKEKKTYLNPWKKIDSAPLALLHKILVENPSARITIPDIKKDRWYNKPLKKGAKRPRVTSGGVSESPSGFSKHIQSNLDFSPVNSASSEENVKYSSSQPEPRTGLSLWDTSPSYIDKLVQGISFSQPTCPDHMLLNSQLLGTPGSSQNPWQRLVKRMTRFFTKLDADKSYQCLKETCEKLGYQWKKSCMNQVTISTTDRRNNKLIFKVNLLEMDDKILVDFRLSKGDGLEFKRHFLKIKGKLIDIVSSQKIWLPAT
Protocol: as §1
In further tests, human A375 malignant melanoma cells were treated with PEG2-thalidomide at different concentrations for 12 h at 37° C. and 5% CO2. Proteins CHK1, GAPDH, and α-Tubulin were probed by specific antibodies. GAPDH and α-Tubulin were used as the loading control. […] Cell culture conditions, lysis and western blotting were performed similar to above.

[1] = system: A375 malignant melanoma cells; test: A375 cell viability, CellTiter Glo assay; format: cell-based; details: Homo sapiens, A-375, 48 h treatment, 384 well plates, FIG. 10
Protocol: In further tests, human A375 malignant melanoma cells were treated with PEG2-thalidomide for 48 h at 37° C. and 5% CO2. Subsequently, the viability of A375 malignant melanoma cells was checked using CellTiter Glo assay (Promega) in 384 well plates, and the luminescence signal was quantified using Biotek H1 plate reader.

ERK kinase = test: ERK degradation in A375 melanoma cells, western blotting; format: cell-based, human; details: 12 h, western blot, FIG. 8
Protocol: as §1, §2

Row | degradation of CHK1 kinase (CHK1 kinase) | dose response of degradation of CHK1 (CHK1 kinase; different concentrations, 12 h, FIG. 7) | IC50 [1] | Structure (SMILES) | degradation of MEK kinase (MEK kinase) | degradation of ERK kinase (ERK kinase)
1 | degrade the protein CHK1 | demonstrating its degradation | 768 nM | N#CCc1ccc(Nc2nc(Nc3cc(C4CC4)[nH]n3)cc(C(=O)NCc3cn(CCOCCOCCNC(=O)COc4cccc5c4C(=O)N(C4CCC(=O)NC4=O)C5=O)nn3)n2)cc1 (stereo not drawn) [PEG2-thalidomide] | degradation of MEK | not ERK
2 | degrade the protein CHK1 | – | – | N#CCc1ccc(Nc2nc(Nc3cc(C4CC4)[nH]n3)cc(C(=O)NCc3cn(CCOCCOCCOCCOCCNC(=O)COc4cccc5c4C(=O)N(C4CCC(=O)NC4=O)C5=O)nn3)n2)cc1 (stereo not drawn) [PEG4-thalidomide] | – | –
